Structures can show the parent of a compound that is named as a salt. Active and inactive are the calls of the source.
Key:
[1] = target: Voltage-gated inwardly rectifying potassium channel KCNH2 (Homo sapiens, UniProt Q12809); settings: Potency;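 further: confirmatory quantitative high-throughput screen measuring inhibition of hERG channel activity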
CAAX prenyl protease 2 [2] = target: T1, CAAX prenyl protease 2 (Saccharomyces cerevisiae S288c, UniProt Q03530); format: biochemical
T1 sequence (Q03530 whole entry): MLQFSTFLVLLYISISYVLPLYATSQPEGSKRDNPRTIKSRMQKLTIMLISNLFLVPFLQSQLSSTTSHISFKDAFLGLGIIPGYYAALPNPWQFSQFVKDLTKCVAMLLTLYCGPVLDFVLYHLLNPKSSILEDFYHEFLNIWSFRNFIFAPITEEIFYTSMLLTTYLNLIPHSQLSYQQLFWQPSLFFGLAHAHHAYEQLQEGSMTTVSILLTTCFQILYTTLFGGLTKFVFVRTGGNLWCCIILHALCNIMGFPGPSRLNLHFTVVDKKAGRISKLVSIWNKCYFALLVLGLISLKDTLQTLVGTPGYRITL

CAAX prenyl protease 2 [3] = target: CAAX prenyl protease 2 (Homo sapiens, UniProt Q9Y256); experiment: inhibition of Ras-converting CAAX protease Rce1 – biochemical, yeast membranes, quenched-peptide fluorescence, cherry-pick, dose response (AID 588849)
Trypsin = Trypsin (Sus scrofa, UniProt P00761); experiment: trypsin protease activity blockade – biochemical, quenched peptide fluorescence, cherry-pick, selectivity assay for Rce1 protease inhibitor project, dose response (AID 488789)
[4] = NIH3T3 cell viability loss – ATP luminescence, mouse fibroblasts, counter-screen, dose response (AID 2010); format: functional, cell-based;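 further: cells exposed to compound for about 90 hours before reading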
[5] = target: Glucose-6-phosphate 1-dehydrogenase (Homo sapiens, UniProt P11413); experiment: inhibition of Homo sapiens G6PD, dose series – biochemical, fluorescence, selectivity assay for P. falciparum G6PD inhibitor project, dose response (AID 504792); format: functional
[6] = Trypanosoma cruzi growth suppression in host cells – NIH3T3 host cells, beta-gal luminescence, confirmation (AID 2044); format: functional, cell-based;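 further: intracellular parasites grown in NIH/3T3 mouse fibroblasts as host cells; luminescent beta-galactosidase reporter signal from transgenic T. cruzi replicating inside host cells; inhibitors lower the luminescence signal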
[7] = restored growth of temperature-sensitive Burl-1 yeast – whole organism, S. cerevisiae, Burl-1 ts mutant, luminescence, counter-screen for SUMOylation pathway inhibitor project, dose response (AID 463199); format: functional
SUMO-activating enzyme = SUMO-activating enzyme (Homo sapiens, UniProt Q9UBT2); experiment: blockers of UBC9-mediated SUMO conjugation – biochemical, AlphaScreen, SUMOylation inhibitor project, confirmation (AID 2018); format: functional
Vero [8] = experiment: cells; format: functional, cell-based; settings: Chlorocebus sabaeus
[9] = target: T2, Zinc finger protein mex-5 (Caenorhabditis elegans, UniProt Q9XUB2); experiment: potency of MEX-5 RNA-binding blockers – biochemical, C. elegans, fluorescence polarization, dose response (AID 1960)
T2 sequence (Q9XUB2 whole entry): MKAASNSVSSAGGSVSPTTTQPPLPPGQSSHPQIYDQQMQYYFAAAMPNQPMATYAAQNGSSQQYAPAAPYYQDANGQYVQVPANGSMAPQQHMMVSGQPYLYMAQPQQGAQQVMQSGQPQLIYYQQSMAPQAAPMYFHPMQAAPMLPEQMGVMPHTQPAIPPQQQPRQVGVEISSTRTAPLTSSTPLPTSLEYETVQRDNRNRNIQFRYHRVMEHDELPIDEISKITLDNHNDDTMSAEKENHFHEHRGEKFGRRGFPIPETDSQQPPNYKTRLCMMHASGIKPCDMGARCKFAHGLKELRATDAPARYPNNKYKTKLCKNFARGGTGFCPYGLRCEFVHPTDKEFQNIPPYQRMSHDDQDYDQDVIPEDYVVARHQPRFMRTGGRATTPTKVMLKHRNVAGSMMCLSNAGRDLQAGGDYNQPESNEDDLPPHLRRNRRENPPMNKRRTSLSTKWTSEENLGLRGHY

[10] = target: Dual specificity tyrosine-phosphorylation-regulated kinase 1A (Rattus norvegicus, UniProt Q63470); format: biochemical, Homo sapiens
[11] = target: T3, RNA-binding protein pos-1 (Caenorhabditis elegans, UniProt G5EF15); experiment: disruptors of C. elegans POS-1 RNA interaction – biochemical, fluorescence polarization, dose response (AID 1964);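 further: purified POS-1 fused to maltose binding protein made in E. coli; potency of compounds blocking POS-1 binding to fluorescent RNA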
T3 sequence (G5EF15 whole entry): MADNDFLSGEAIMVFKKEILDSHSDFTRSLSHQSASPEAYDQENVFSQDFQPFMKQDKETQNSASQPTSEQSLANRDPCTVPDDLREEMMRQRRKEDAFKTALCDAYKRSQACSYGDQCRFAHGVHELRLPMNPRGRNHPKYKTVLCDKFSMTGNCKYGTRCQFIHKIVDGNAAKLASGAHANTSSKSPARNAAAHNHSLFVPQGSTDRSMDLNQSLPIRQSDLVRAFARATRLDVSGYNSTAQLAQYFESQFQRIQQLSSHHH

[12] = Counterscreen for antagonists of the orexin 1 receptor (OX1R; HCRTR1): Fluorescence-based cell-based high throughput dose response assay to identify antagonists of the parental CHO cell line. [Related pubchem assays (depositor defined):AID434989, AID435008, AID463079, AID485270, AID492963, AID492964, AID492965, AID493232, AID504699, AID504701]; format: functional
[13] = target: T4, Orexin/Hypocretin receptor type 1 (Homo sapiens, UniProt O43613); experiment: Fluorescence-based cell-based high throughput dose response assay for antagonists of the orexin 1 receptor (OX1R; HCRTR1). [Related pubchem assays (depositor defined):AID434989, AID435008, AID463079, AID485270, AID492963, AID492964, AID492965, AID493232, AID504717, AID504718]; format: functional
T4 sequence (O43613 whole entry): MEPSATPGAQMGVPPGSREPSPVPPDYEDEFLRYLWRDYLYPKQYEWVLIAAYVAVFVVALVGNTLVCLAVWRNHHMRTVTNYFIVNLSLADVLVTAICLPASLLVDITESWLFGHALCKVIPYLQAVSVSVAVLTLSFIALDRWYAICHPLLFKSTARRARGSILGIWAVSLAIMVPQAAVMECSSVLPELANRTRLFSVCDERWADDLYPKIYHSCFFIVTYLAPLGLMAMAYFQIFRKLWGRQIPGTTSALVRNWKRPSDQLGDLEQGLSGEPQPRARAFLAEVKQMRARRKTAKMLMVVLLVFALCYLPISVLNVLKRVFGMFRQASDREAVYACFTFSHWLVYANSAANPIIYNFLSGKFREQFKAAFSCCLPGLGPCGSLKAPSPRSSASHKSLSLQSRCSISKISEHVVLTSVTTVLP

[14] = target: T4, Orexin/Hypocretin receptor type 1; experiment: Homogeneous Time Resolved Fluorescence (HTRF)-based cell-based high throughput dose response assay for antagonists of the orexin 1 receptor (OX1R; HCRTR1). [Related pubchem assays (depositor defined):AID434989, AID435008, AID463079, AID485270, AID492963, AID492964, AID492965, AID493232, AID504717, AID504718]; format: functional
CHO-K1 = experiment: Counterscreen for antagonists of the orexin 1 receptor (OX1R; HCRTR1): Homogeneous time resolved fluorescence (HTRF)-based cell-based dose response assay to identify antagonists of the parental CHO-K1 cell line. [Related pubchem assays (depositor defined):AID434989, AID435008, AID463079, AID485270, AID492963, AID492964, AID492965, AID493232, AID504699, AID504701]; format: functional; settings: Cricetulus griseus;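 further: potency for inhibition of ATP-stimulated IP1 production as antagonists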
Beta-galactosidase = Beta-galactosidase (Escherichia coli, UniProt Q8VNN2); experiment: PubChem AID 485352; format: functional
[15] = target: T5, Type-1 angiotensin II receptor (Homo sapiens, UniProt P30556); experiment: antagonism of angiotensin II type 1 receptor – cell-based, uHTS hits, selectivity assay for APJ receptor antagonist project, dose response (AID 463214); format: functional;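 further: antagonist potency against angiotensin II stimulated AT1 response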
T5 sequence (P30556 whole entry): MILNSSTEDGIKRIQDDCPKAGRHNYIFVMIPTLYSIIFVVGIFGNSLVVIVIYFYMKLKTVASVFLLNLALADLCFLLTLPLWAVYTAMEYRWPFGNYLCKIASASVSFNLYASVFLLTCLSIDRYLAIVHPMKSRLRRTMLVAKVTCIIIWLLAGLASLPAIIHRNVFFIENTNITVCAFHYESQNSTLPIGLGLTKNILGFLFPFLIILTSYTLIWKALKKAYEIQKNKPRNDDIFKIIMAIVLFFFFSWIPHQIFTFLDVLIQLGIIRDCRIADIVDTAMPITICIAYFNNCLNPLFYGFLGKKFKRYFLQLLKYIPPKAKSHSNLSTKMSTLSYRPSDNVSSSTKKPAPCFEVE

Escherichia coli [16] = experiment: microbe, parasite or virus in culture
BJ [17] = experiment: BJ-TERT-LT-ST fibroblast viability loss – cell-based, RAS-independent, luminescence, dose response (AID 1935); format: functional; settings: Homo sapiens;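 further: BJ fibroblasts immortalized with TERT plus LT and ST oncogenes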
Vero [18] = experiment: cells; format: functional; settings: Chlorocebus sabaeus
BJ [19] = experiment: BJ-TERT fibroblast viability loss – cell-based, RAS-independent, luminescence, dose response (AID 1933); format: functional; settings: Homo sapiens
BJ [20] = experiment: cells; format: functional, cell-based; settings: Homo sapiens
Nonstructural protein 1 = Nonstructural protein 1 (Influenza A virus, UniProt Q194T2); format: functional, Influenza A virus (A/California/07/2009(H1N1))
[21] = NIH-3T3 fibroblast cytotoxicity, dose response, cytotoxicity control, cell-based, fluorescence, Alamar Blue, secondary assay (AID 2327); format: functional;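 further: NIH-3T3 mouse fibroblasts cultured with fluconazole at 8 µg/mL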
INS1 = experiment: INS-1E survival protection against cytokine death – cell-based, luminescence, retest, dose response (AID 449756); format: functional; settings: Rattus norvegicus;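 further: cell death triggered by IL-1 beta plus TNF-alpha plus IFN-gamma mixture; protective hits raise ATP signal compared with cytokine alone wells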
[22] = DRD fibroblast viability loss – cell-based, non-viral oncogenic, luminescence, dose response (AID 1934); format: functional; settings: Homo sapiens
[23] = fluconazole-exposed Candida albicans growth modulators – fluorescence, retest, confirmation (AID 2467); format: functional, cell-based
[24] = A cytotoxicity screen of small molecule inhibitors of the PhoP region in Salmonella typhi identified in the primary screen. [Related pubchem assays: 1850, 1864, 1985 ]; format: functional
Escherichia coli [25] = experiment: microbe, parasite or virus in culture; remark: listed apart in the source

CAAX prenyl protease 2 (Homo sapiens, UniProt Q9Y256), sequence (Q9Y256 whole entry): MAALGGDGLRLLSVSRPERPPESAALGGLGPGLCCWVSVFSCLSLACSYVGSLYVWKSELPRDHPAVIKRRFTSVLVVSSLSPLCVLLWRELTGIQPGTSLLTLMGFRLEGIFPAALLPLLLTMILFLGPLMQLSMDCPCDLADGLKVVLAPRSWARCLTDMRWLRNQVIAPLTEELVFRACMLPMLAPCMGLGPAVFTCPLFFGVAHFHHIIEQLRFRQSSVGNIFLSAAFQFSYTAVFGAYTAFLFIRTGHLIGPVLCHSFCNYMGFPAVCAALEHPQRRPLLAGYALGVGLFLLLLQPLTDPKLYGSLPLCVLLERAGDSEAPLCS
Trypsin, sequence (P00761 whole entry): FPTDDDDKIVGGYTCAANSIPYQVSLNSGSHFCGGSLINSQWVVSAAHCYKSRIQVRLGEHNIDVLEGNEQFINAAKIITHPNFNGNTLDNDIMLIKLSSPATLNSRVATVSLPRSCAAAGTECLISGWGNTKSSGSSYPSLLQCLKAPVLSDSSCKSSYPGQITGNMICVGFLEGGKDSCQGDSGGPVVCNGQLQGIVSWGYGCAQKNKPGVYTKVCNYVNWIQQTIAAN
Voltage-gated inwardly rectifying potassium channel KCNH2, sequence (Q12809 whole entry): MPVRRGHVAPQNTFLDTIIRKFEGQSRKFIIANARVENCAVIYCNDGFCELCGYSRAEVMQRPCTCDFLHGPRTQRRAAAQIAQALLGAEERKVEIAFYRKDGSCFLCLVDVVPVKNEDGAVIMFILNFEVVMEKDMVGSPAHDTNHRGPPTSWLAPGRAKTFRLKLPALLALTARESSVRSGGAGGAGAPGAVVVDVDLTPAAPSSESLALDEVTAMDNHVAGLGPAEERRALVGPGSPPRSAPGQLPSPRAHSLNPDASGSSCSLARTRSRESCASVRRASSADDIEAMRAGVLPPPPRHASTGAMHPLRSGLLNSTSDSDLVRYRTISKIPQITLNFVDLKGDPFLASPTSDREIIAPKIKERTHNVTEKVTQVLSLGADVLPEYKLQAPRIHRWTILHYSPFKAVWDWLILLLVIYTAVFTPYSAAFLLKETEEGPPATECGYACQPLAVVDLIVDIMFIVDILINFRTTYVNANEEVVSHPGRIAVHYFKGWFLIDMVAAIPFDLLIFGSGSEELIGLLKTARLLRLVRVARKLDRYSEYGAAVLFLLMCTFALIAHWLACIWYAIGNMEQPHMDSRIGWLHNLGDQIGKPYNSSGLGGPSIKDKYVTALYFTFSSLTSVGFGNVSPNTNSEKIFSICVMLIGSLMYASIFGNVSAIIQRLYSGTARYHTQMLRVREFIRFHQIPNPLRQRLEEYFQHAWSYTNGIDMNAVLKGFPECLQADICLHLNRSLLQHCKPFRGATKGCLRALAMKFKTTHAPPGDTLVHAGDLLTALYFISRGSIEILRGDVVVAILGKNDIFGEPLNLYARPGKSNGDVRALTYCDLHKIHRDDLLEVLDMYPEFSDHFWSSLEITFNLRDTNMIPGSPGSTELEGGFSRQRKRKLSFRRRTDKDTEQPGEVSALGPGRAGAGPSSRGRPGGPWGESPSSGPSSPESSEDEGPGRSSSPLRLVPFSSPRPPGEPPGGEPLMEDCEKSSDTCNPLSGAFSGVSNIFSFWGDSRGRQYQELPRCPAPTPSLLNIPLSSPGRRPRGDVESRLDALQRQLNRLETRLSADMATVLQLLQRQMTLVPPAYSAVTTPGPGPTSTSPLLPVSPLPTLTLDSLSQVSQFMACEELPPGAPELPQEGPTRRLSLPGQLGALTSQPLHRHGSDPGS
Beta-galactosidase, sequence (Q8VNN2 whole entry): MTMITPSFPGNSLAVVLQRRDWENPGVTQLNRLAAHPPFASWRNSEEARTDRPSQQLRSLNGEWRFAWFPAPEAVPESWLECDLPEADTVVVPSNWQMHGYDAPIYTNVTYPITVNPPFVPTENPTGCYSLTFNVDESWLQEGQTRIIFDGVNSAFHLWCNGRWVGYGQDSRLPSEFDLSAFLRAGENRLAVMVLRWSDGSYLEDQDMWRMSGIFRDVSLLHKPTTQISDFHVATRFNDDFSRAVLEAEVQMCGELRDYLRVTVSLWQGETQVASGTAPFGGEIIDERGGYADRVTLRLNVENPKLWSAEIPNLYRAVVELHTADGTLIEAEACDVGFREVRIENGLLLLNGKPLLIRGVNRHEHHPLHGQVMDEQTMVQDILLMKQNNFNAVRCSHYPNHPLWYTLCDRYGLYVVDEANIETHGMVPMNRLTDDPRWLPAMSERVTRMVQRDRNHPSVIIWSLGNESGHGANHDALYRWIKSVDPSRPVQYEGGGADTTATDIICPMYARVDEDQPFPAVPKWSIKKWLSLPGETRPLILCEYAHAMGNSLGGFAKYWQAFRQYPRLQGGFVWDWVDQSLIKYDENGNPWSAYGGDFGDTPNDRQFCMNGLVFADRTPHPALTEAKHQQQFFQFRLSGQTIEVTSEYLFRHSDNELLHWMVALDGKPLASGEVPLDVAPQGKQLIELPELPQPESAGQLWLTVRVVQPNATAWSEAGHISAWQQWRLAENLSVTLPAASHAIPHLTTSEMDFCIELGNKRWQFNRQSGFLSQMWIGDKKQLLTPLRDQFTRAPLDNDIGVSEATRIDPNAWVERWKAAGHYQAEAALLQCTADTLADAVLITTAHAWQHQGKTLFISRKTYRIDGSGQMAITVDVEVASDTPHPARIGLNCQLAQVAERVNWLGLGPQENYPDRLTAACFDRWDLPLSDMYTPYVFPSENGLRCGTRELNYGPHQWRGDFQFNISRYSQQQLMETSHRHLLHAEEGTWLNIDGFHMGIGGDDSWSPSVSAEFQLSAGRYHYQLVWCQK
Glucose-6-phosphate 1-dehydrogenase, sequence (P11413 whole entry): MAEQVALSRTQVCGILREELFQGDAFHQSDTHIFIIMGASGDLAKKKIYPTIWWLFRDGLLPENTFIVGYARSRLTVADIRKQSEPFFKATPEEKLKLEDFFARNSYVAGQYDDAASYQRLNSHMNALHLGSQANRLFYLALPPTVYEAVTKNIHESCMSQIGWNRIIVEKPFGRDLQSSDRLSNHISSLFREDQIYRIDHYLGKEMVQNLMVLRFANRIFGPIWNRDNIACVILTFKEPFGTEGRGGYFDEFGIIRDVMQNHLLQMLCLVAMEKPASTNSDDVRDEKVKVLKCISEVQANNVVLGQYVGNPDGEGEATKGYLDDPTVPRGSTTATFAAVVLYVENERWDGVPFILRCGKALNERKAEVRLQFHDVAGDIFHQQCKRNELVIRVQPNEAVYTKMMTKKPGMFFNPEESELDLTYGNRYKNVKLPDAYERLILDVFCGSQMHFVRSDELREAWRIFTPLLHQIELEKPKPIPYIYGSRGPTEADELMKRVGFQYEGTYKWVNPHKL
SUMO-activating enzyme, sequence (Q9UBE0 whole entry): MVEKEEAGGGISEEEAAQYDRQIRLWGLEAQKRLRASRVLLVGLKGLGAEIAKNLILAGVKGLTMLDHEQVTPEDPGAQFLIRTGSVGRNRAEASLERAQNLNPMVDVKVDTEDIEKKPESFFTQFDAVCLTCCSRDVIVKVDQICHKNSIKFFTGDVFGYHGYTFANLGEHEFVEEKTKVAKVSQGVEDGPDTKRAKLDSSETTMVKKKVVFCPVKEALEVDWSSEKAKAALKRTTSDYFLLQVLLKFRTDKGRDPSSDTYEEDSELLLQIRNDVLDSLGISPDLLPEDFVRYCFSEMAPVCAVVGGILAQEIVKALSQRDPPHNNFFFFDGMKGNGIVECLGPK
SUMO-activating enzyme, sequence (Q9UBT2 whole entry): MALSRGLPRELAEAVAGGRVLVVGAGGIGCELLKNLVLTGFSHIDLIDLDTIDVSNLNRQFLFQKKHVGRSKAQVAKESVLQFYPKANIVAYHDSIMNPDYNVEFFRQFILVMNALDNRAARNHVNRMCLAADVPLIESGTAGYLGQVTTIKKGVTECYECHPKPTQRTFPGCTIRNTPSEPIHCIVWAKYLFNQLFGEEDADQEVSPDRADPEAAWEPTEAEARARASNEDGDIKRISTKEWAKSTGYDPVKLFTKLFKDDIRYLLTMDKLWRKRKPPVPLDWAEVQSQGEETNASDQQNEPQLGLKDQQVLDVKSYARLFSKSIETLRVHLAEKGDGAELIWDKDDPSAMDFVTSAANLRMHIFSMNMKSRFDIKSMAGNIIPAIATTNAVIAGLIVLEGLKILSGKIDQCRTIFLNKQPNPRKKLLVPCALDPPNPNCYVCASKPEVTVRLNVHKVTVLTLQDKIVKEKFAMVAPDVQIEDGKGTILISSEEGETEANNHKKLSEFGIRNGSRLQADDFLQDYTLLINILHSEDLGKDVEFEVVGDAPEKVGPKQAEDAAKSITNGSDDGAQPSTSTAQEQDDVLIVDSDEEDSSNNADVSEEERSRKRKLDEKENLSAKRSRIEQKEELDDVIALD
Nonstructural protein 1, sequence (Q194T2 whole entry): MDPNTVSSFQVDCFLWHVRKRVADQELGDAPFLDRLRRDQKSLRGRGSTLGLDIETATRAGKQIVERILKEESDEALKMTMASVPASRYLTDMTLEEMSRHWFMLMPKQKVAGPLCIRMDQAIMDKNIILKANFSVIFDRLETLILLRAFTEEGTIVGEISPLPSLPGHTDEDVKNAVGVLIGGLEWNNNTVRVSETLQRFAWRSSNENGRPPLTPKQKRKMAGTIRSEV

Structure (SMILES): CCCN1CCC[C@@H]2Cc3n[nH]cc3C[C@H]21 [QUINPIROLE HYDROCHLORIDE]
- AC50 [1]: 11.2 µM (inconclusive)

Structure (SMILES): COc1ccc(-n2nc(C(=O)NCC(=O)NCc3ccc(F)cc3)c3ccccc3c2=O)cc1
- AC50 (CAAX prenyl protease 2 [2]): 5.21 µM (active)
- AC50 (CAAX prenyl protease 2 [3]): 9.42 µM (active)
- AC50 (Trypsin): 9.62 µM (active)

Structure (SMILES): Cc1ccc(S(=O)(=O)Cc2cn3cccnc3n2)cc1
- AC50 (CAAX prenyl protease 2 [2]): 16.2 µM (active)
- AC50 (CAAX prenyl protease 2 [3]): 34.3 µM (active)
- AC50 (Trypsin): 25.1 µM (active)

Structure (SMILES): O=[N+]([O-])c1ccc(Sc2cccc3cccnc23)c2cccnc12
- EC50 [4]: > 30 µM (not active)
- IC50 [5]: > 80 µM (inactive)
- EC50 [6]: 0.666 µM (active)

Structure (SMILES): Cc1ccccc1-c1nnc(CN2CCC(C)CC2)o1
- AC50 [7]: 46.9 µM (active)

Structure (SMILES): CN1CCN(CC/C=C2/c3ccccc3Sc3ccc(S(=O)(=O)N(C)C)cc32)CC1
- AC50 [1]: 2.51 µM (inconclusive)

Structure (SMILES): Cc1ccc2oc(-c3ccc(C)c(NC(=O)Cc4cccs4)c3)nc2c1
- IC50 (SUMO-activating enzyme): > 100 µM (inactive)

Structure (SMILES): Cc1ccc2[nH]c(CN3CCC(CO)(CC4CCCCO4)CC3)c(C)c2c1 (stereo not drawn)
- IC50 (Vero [8]): > 25 µM (active)

Structure (SMILES): Cc1c(C(=O)O)cccc1-n1c(C)cc(/C=N/Nc2ccc([N+](=O)[O-])cn2)c1C
- EC50 [9]: 50.2 µM (active)
- AC50 [10]: 6.79 µM (active)
- EC50 [11]: > 300 µM (not active)

Structure (SMILES): Cn1c2ccc(F)cc2c2nc3ccccc3nc21
- IC50 [12]: > 49.7 µM (inactive)
- IC50 [13]: 6.95 µM (active)
- IC50 [14]: 1.17 µM (active)
- IC50 (CHO-K1): > 66.2 µM (inactive)

Structure (SMILES): O=C(COC(=O)c1cccnc1Cl)c1ccc(Cl)cc1Cl
- EC50 (Beta-galactosidase): > 40 µM (inactive)
- IC50 [15]: 35.4 µM (not active)

Structure (SMILES): CCc1nc2ccccc2c(C(=O)OC2CCOC2=O)c1C (stereo not drawn)
- AC50 (Escherichia coli [16]): 42.9 µM (active)

Structure (SMILES): C/C(=N\NC(=O)c1cc(-c2cccs2)nc2ccccc12)c1ccccn1
- EC50 (BJ [17]): 1.14 µM (active)
- IC50 (Vero [8]): > 25 µM (active)
- CC50 (Vero [18]): 1.62 µM (active)
- EC50 (BJ [19]): 1.3 µM (active)
- EC50 (BJ [20]): 2.12 µM (active)
- IC50 (Nonstructural protein 1): 4.52 µM (active)
- EC50 [21]: 2.71 µM (inconclusive)
- AC50 (INS1): 0.366 µM (active)
- EC50 [22]: 1.41 µM (active)
- EC50 [23]: 1.19 µM (active)

Structure (SMILES): COc1ccc(OC)c(-c2cc(C(=O)Nc3c(C)nn(Cc4ccccc4Cl)c3C)no2)c1
- AC50 [7]: 47.9 µM (active)

Structure (SMILES): O=C1OCCN1/N=C/c1ccc([N+](=O)[O-])o1 [FURAZOLIDONE]
- EC50 [24]: > 50 µM (active)
- AC50 (Escherichia coli [25]): 24.4 µM (active)
- AC50 (Escherichia coli [16]): 17.8 µM (active)

— ChEMBL document CHEMBL1201862, “PubChem BioAssay data set” (2004)
